Assay results from PubChem BioAssay (NCI).
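Briefly, cells in 96-well plates were exposed to five compound concentrations for 48 h, and endpoints were estimated by linear interpolation. GI50 is the concentration that inhibits growth by half. TGI is the concentration that stops growth completely.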 Where a SMILES comes first, the peptide text is derived from it. The star is where a group is joined. Cbz = O=C(OCc1ccccc1)*; CH2Cl = ClC*

Experiments:
Assay in all cases: inhibition of tumour cell growth, NCI panel, 48 h
[1] = system: CAKI-1 renal
[2] = system: COLO 205 colon
[3] = system: HOP-92 NSCLC
[4] = system: IGROV1 ovarian
[5] = system: MALME-3M melanoma
[6] = system: NCI-H23 lung
[7] = system: NCI-H460 lung
[8] = system: RPMI-8226 leukemia
[9] = system: SNB-75 CNS
[10] = system: SW-620 colon

| Structure (SMILES) | GI50 [1] | TGI [1] | GI50 [2] | TGI [2] | GI50 [3] | TGI [3] | GI50 [4] | TGI [4] | GI50 [5] | TGI [5] | GI50 [6] | TGI [6] | GI50 [7] | TGI [7] | GI50 [8] | TGI [8] | GI50 [9] | TGI [9] | GI50 [10] | TGI [10] |
| --- | --- | --- | --- | --- | --- | --- | --- | --- | --- | --- | --- | --- | --- | --- | --- | --- | --- | --- | --- | --- |
| O=C(CSc1nc2ccccc2nc1-c1ccccc1)Nc1ccc(F)cc1 | > 100 µM | > 100 µM | 83.3 µM | > 100 µM | 20.3 µM | 58.1 µM | 42.4 µM | > 100 µM | 17.1 µM | 54 µM | 69.7 µM | > 100 µM | 60.7 µM | > 100 µM | 58.5 µM | > 100 µM | 21.6 µM | 80.8 µM | 61 µM | > 100 µM |
| Cc1c2c(C#N)nccc2c(C)c2c1c1ccccc1n2Cc1ccccc1 |  | > 100 µM |  | > 100 µM |  | > 100 µM |  | > 100 µM |  | > 100 µM |  | > 100 µM |  | > 100 µM |  | > 100 µM |  | > 100 µM |  | > 100 µM |
| COc1cc(Cn2c(-c3ccccc3)c(Cl)c3c2-c2oncc2CC3)cc(OC)c1 | 5.24 µM | > 100 µM | 8.03 µM | 30.6 µM | 50 µM | > 100 µM | 4.89 µM | 21.7 µM | 4.16 µM | 21.1 µM | 6.15 µM | > 100 µM | 4.91 µM | 84 µM | 7.11 µM | > 100 µM | 5.03 µM | 75.3 µM | 3.7 µM | 19.2 µM |
| Cc1cc(Cl)ccc1NC(=O)C(=O)Cc1nc2ccccc2o1 |  | > 100 µM |  | > 100 µM |  | > 100 µM |  | > 100 µM |  | > 100 µM |  | > 100 µM |  | > 100 µM |  | > 100 µM |  | > 100 µM |  | > 100 µM |
| CCSc1ncnc2c1ncn2C1OC(CO)C(O)C1O (stereo unspecified) | 0.272 µM | > 55.4 µM | 0.777 µM | > 100 µM | 1.98 µM | 12.2 µM | 0.442 µM | 18.1 µM | 9.41 µM | > 100 µM | 0.434 µM | > 100 µM | 0.6 µM | > 100 µM | 4.5 µM | > 100 µM | > 34.1 µM | > 100 µM | 0.3 µM | > 100 µM |
| CCOc1ccc(NC(=O)C(=O)CC(=O)c2c(C)n([O-])c3ccccc3[n+]2=O)cc1 |  | > 100 µM |  | > 100 µM |  | > 100 µM |  | > 100 µM |  | > 100 µM |  | > 100 µM |  | > 100 µM |  | > 100 µM |  | > 100 µM |  | > 100 µM |
| COc1c(OC[C@H](O)CN2CCOCC2)ccc2c3n(c(=NC(=O)c4cccnc4C)nc12)CCN3 | 0.859 µM | > 50 µM | 0.918 µM | > 50 µM | 0.0637 µM | 10.1 µM | 0.06 µM | 0.343 µM | 0.982 µM | > 50 µM | > 50 µM | > 50 µM | 0.528 µM | > 50 µM | > 50 µM | > 50 µM | 0.02 µM | 1.18 µM | 49.4 µM | > 50 µM |
| O=C(O)Cc1cc(Cl)ccc1O |  | > 100 µM |  | > 100 µM |  | > 100 µM |  | > 100 µM |  | > 100 µM |  | > 100 µM |  | > 100 µM |  | > 100 µM |  | > 100 µM |  | > 100 µM |
| CC(C)CC(NC(=O)OCc1ccccc1)C(=O)NC(Cc1ccccc1)C(=O)CCl (stereo not drawn) (Cbz-Leu-Phe-CH2Cl; configuration not given here) |  | 12.5 µM |  | 8.44 µM |  | 3.73 µM |  | 4.11 µM |  | 4.16 µM |  | 4.9 µM |  | 18 µM |  | 5.15 µM |  | 9.32 µM |  | 3.94 µM |
| CC(=O)OC12C=CC(=O)N1c1ccccc1C(=O)O2 (stereo unspecified) |  | > 100 µM |  | > 100 µM |  | > 100 µM |  | > 100 µM |  | > 85.8 µM |  | > 100 µM |  | > 100 µM |  | > 100 µM |  | > 100 µM |  | > 100 µM |
| C[C@@H]1CC[C@@H]2[C@@H]1[C@H](OC(=O)/C=C/c1ccccc1)[C@]1(C3CCCCC3)C[C@@H](OC(=O)CO)[C@@]2(C)O1 | 0.0347 µM | 11 µM | 3.12 µM | 11.1 µM | 2.68 µM | 9.17 µM | 3.84 µM | 15 µM | 2.48 µM | 7.21 µM | 3.88 µM | 14.8 µM | 2.62 µM | 6.55 µM | 2.99 µM | 7.49 µM | 1.09 µM | 14.7 µM | 4.43 µM | 16.9 µM |
| CN(C)CC1CCCC/C1=N/OC(=O)c1ccc(Cl)cc1 (stereo unspecified) |  | > 100 µM |  | > 100 µM |  | > 100 µM |  | > 100 µM |  | > 100 µM |  | > 100 µM |  | > 100 µM |  | > 100 µM |  | > 100 µM |  | > 100 µM |
| Cc1ccc(NC(=O)CCc2cc(C(C)(C)C)nc(=S)[nH]2)cc1C |  | > 100 µM |  | > 100 µM |  | > 100 µM |  | > 100 µM |  | > 100 µM |  | > 100 µM |  | > 100 µM |  | > 100 µM |  | > 100 µM |  | > 100 µM |
| O=c1ccn([C@H]2CSC[C@@H](CO)C2)c(=O)[nH]1 |  | > 100 µM |  |  |  | > 100 µM |  | > 100 µM |  | > 100 µM |  | > 100 µM |  | > 100 µM |  | > 100 µM |  | > 100 µM |  | > 100 µM |
| Nc1c(C(=O)Nc2ccncc2)sc2nc3c(cc12)CCCCCCCC3 | 0.805 µM | 1.49 µM | 0.997 µM | 2.18 µM | 0.761 µM | 1.49 µM | 0.933 µM | 1.82 µM | 0.87 µM | 1.66 µM | 0.9 µM | 1.74 µM | 0.995 µM | 1.83 µM | 1.23 µM | 2.71 µM | 0.819 µM | 1.53 µM | 0.957 µM | 1.88 µM |
| O=C1/C(=C/c2ccc(Cl)cc2)CCC1CCN1CCOCC1 (stereo unspecified) |  | > 100 µM |  |  |  | > 100 µM |  | > 100 µM |  | > 100 µM |  | > 100 µM |  | > 100 µM |  | 64.4 µM |  | > 100 µM |  | > 100 µM |
| CC[C@H]1[C@@H]2C=C[C@@H]3[C@H]4C/C=C\C(=O)NCCC[C@@H]5NC(=O)/C(=C(O)/C=C/[C@@H]4C[C@@H]3[C@H]2C[C@H]1C)C5=O |  |  | 3.24 µM | 8.44 µM | 1.41 µM | 2.82 µM | 0.252 µM | 0.756 µM | 1.39 µM | 2.83 µM | 1.81 µM | 4.28 µM | 0.409 µM | 1.84 µM | 1.77 µM | 4.23 µM | 0.415 µM | 1.58 µM | 2.46 µM | 7.59 µM |
